Legend:
Test in all cases: Protein kinase inhibition assay
[1] = test system: c-RAF(h); type: biochemical, human; details: 2.5 μM
Description: (§1) Certain compounds were tested for activity in protein kinase inhibition assays. All substrates were dissolved and diluted to working stocks in de-ionized water, apart from histone H1 (10× working stock in 20 mM MOPS pH 7.0), PDKtide (10× working stock in 50 mM Tris pH 7.0) ATF2 (which is typically stored at a 20× working stock in 50 mM Tris pH 7.5, 150 mM NaCl, 0.1 mM EGTA, 0.03% Brij-35, 50% glycerol, 1 mM benzamidine, 0.2 mM PMSF and 0.1% R-mercaptoethanol), KKLNRTLSFAEPG (SEQ ID NO:203) and RRRLSFAEPG (SEQ ID NO:204) (50 mM HEPES pH 7.4) and GGEEEEYFELVKKKK (SEQ ID NO:205) (20 mM MOPS pH 7.0). All kinases were pre-diluted to a 10× working concentration prior to addition into the assay. The composition of the dilution buffer for each kinase is detailed below.
(§2) In a final reaction volume of 25 μl, c-RAF (h) (5-10 mU) is incubated with 25 mM Tris pH 7.5, 0.02 mM EGTA, 0.66 mg/ml myelin basic protein, 10 mM MgAcetate and [gamma-33P-ATP] (specific activity approx. 500 cpm/pmol, concentration as required). The reaction is initiated by the addition of the MgATP mix. After incubation for 40 minutes at room temperature, the reaction is stopped by the addition of 5 μl of a 3% phosphoric acid solution. 10 μl of the reaction is then spotted onto a P30 filtermat and washed three times for 5 minutes in 75 mM phosphoric acid and once in methanol prior to drying and scintillation counting.

[2] = target: IGF-1R(h) (Homo sapiens, UniProt P08069); type: biochemical; details: read-out: percent residual activity of IGF-1R(h)
Chain of IGF-1R(h) (P08069 31-1367): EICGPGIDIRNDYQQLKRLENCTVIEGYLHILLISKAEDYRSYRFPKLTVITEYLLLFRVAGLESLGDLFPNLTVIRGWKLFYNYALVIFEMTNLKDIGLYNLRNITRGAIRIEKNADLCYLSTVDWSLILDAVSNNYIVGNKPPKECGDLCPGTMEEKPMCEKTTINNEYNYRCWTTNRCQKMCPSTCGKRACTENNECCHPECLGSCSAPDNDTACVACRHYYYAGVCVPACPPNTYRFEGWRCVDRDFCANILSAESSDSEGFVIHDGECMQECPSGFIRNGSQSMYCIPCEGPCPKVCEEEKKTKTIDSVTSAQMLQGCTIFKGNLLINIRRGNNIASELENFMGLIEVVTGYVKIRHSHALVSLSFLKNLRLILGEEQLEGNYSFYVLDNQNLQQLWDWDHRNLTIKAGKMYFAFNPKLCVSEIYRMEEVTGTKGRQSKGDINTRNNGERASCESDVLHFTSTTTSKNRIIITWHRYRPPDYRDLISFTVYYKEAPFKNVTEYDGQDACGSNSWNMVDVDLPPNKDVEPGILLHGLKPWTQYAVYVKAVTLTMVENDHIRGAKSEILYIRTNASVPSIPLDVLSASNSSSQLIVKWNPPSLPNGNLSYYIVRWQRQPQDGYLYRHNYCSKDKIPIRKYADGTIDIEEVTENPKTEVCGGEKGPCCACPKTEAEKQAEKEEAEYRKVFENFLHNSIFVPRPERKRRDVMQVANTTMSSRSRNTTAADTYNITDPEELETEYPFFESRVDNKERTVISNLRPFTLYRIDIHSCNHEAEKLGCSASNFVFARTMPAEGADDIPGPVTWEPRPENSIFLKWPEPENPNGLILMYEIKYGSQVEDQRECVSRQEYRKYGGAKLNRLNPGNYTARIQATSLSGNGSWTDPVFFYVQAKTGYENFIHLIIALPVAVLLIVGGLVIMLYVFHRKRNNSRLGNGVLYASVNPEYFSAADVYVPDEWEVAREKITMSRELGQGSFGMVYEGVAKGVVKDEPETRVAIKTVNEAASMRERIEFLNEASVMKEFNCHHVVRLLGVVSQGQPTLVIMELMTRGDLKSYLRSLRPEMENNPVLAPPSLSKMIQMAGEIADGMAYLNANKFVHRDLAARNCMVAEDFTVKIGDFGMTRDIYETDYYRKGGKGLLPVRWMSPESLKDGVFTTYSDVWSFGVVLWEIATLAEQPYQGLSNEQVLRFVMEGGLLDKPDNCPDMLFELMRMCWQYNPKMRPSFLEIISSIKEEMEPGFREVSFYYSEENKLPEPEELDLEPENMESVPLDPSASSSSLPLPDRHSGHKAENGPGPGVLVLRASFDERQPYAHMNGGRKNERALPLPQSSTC
Description: as §1
(§3) In a final reaction volume of 25 μl, IGF-1R (h) (5-10 mU) is incubated with 50 mM Tris pH 7.5, 0.1 mM EGTA, 0.1 mM Na3VO4, 0.1% R-mercaptoethanol, 250 μM KKKSPGEYVNIEFG (SEQ ID NO:207), 10 mM MnCl2, 10 mM MgAcetate and [gamma-33P-ATP] (specific activity approx. 500 cpm/pmol, concentration as required). The reaction is initiated by the addition of the MgATP mix. After incubation for 40 minutes at room temperature, the reaction is stopped by the addition of 5 μl of a 3% phosphoric acid solution. […]

[3] = target: JNK2α2(h) (Homo sapiens, UniProt P45984); type: biochemical; details: read-out: percent residual activity of JNK2α2(h)
Chain of JNK2α2(h) (P45984 whole entry): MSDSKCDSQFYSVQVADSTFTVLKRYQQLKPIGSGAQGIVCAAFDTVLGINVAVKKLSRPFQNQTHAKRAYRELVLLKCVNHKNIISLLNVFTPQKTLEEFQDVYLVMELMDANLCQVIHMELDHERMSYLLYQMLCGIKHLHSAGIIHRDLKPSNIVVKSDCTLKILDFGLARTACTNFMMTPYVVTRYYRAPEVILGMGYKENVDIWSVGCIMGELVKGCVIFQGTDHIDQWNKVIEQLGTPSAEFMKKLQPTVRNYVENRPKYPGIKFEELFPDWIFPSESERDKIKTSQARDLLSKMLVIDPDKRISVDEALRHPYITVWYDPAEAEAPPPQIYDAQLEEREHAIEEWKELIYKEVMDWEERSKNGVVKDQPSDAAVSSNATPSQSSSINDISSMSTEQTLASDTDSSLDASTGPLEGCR
Description: as §1
as §2, with “μl, JNK2α2” for “μl, c-RAF”, “with 50” for “with 25”, “7.5, […]” for “7.5, 0.02 mM”, “[…], 0.1% R-mercaptoethanol, 3 μM ATF2,” for “EGTA, 0.66 mg/ml myelin basic protein,”

[4] = target: Lck(h) (Homo sapiens, UniProt P06239); type: biochemical; details: read-out: percent residual activity of Lck(h)
Chain of Lck(h) (P06239 whole entry): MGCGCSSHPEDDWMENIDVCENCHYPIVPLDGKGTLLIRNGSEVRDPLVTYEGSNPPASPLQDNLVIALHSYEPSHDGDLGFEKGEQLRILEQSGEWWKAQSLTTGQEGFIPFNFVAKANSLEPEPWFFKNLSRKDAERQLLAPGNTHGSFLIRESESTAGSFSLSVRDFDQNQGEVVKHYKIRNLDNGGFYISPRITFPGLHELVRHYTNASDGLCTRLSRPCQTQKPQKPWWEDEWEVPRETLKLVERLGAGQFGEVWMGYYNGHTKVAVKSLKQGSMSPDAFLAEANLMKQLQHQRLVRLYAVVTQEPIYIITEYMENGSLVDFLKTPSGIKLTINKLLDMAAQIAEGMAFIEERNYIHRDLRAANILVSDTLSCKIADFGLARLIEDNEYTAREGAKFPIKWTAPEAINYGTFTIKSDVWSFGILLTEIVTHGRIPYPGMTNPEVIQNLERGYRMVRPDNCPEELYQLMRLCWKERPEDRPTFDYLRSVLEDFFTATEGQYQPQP
Description: as §1
as §3, with “Lck” for “IGF-1R”, “Na3VO4,” for “Na3VO4, 0.1% R-mercaptoethanol,”, “KVEKIGEGTYGVVYK” for “KKKSPGEYVNIEFG”, “NO:211) (Cdc2 peptide),” for “NO:207), 10 mM MnCl2,”

[5] = target: PKCι(h) (Homo sapiens, UniProt P41743); type: biochemical; details: read-out: percent residual activity of PKCι(h)
Chain of PKCι(h) (P41743 whole entry): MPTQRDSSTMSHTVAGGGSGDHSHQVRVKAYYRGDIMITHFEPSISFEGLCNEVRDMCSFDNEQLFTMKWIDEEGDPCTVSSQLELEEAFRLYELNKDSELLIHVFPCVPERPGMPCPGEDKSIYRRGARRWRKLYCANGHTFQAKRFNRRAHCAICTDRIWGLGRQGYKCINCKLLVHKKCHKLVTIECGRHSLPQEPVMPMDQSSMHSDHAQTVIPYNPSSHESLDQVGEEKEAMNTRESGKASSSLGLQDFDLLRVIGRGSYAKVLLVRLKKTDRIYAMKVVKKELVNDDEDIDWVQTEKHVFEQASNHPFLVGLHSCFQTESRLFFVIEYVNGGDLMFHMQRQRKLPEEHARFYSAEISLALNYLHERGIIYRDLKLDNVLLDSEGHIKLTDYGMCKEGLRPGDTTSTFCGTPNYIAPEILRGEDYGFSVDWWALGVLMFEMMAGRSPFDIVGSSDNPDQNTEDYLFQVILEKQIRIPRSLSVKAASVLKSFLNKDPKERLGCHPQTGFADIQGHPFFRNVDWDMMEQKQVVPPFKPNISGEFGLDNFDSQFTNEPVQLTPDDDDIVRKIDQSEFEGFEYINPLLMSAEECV
Description: as §1
as §3, with “PKCι” for “IGF-1R”, “with 20 mM HEPES pH 7.4, 0.03%. Triton X-100,” for “with”, “50” for “50 mM Tris pH 7.5, 0.1 mM EGTA, 0.1 mM Na3VO4, 0.1% R-mercaptoethanol, 250”, “ERMRPRKRQGSVRRRV” for “KKKSPGEYVNIEFG”, “NO:224),” for “NO:207), 10 mM MnCl2,”

[6] = target: Rsk3(h) (Homo sapiens, UniProt Q15349); type: biochemical; details: read-out: percent residual activity of Rsk3(h)
Chain of Rsk3(h) (Q15349 whole entry): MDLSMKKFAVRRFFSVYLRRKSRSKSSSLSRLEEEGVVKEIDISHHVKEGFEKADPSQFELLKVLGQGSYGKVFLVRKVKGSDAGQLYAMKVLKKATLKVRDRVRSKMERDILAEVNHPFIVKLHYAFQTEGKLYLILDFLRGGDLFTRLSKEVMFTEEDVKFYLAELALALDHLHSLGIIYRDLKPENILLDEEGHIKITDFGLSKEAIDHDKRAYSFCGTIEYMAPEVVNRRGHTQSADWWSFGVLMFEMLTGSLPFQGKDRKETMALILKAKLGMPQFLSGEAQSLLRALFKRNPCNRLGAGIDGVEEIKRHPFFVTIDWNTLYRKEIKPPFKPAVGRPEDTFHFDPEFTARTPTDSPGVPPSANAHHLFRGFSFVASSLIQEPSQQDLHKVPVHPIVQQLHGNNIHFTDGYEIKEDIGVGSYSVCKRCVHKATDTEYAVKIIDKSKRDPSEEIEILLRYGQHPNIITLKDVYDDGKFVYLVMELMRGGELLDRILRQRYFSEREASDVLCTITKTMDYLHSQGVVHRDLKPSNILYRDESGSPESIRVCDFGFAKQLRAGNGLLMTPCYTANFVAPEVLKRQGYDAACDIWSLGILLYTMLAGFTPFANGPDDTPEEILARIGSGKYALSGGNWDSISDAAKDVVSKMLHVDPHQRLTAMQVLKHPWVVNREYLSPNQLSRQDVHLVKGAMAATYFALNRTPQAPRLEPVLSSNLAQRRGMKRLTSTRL
Description: as §1
as §2, with “μl, Rsk3” for “μl, c-RAF”, “with 8” for “with 25”, “mM MOPS” for “mM Tris”, “pH 7.0, 0.2” for “pH 7.5, 0.02”, “mM EDTA, 30 μM KKKNRTLSVA (SEQ ID NO:212),” for “mM EGTA, 0.66 mg/ml myelin basic protein,”

| percent residual activity of c-RAF(h) [1] [%] | remaining activity at 2.5 µM [2] [%] | remaining activity at 2.5 µM [3] [%] | remaining activity at 2.5 µM [4] [%] | remaining activity at 2.5 µM [5] [%] | remaining activity at 2.5 µM [6] [%] | Compound |
| --- | --- | --- | --- | --- | --- | --- |
| 96 | 113 | 106 | 115 | 95 | 107 | CC(=O)N1CCN(c2ccc3c(=O)c(C(=O)NCCN4CCCC4)c4n(C)c5ccccc5n4c3n2)CC1 [Compound B-1] |
| 100 | 103 | 101 | 170 | 72 | 89 | CN1CCCC1CCNC(=O)c1cn2c3c(c(N4CCC(c5cnccn5)C4)c(F)cc3c1=O)Oc1cc3ccccc3cc1-2 (stereo not drawn) [Compound A-1] |

From US20070117770A1, “Human ribosomal DNA (rDNA) and ribosomal RNA (rRNA) nucleic acids and uses thereof” (Cylene Pharmaceuticals, Inc., priority 2005, published 2007)
